Measurements as given in publication PMC6412891, “Synthesis and Biological Evaluation of Novel Thiazolyl-Coumarin Derivatives as Potent Histone Deacetylase Inhibitors with Antifibrotic Activity” (Molecules, 2019).
Read-outs that look alike come from different tables or passages of the source.

Tests used:
HDAC1 human recombinant = target: T1, HDAC1 human recombinant (Homo sapiens, UniProt Q13547); assay: HDAC1 inhibitory activity, fluorometric kit; type: biochemical; conditions: Class I
T1 construct: purchased Enzo Life Science BML-AK511

[1] = Cytotoxicity assay (Alamar Blue) in cardiac fibroblasts; type: cell-based, rat; conditions: Sprague-Dawley, rat, primary neonatal rat cardiac fibroblasts (CFs), CFs treated for 48 h
Protocol: (§1) CFs were treated for 48 h with all the new CTz derivatives in a broad concentration range (100 μM^−1 mM), and their cytotoxicity was then evaluated. In Table 3 cytotoxic concentration 50 (CC50) values for each of the synthesized compounds are shown. […] When comparing the different ZBG the series 5 is the least cytotoxic for CFs, while series 8 was the most cytotoxic.
(§2) Sprague Dawley rats were obtained from the Animal Breeding Facility of the School of Chemical and Pharmaceutical Sciences at the University of Chile. All studies followed the Guide for the Care and Use of Laboratory Animals published by the US National Institutes of Health (NIH Publication 8th, 2011), and experimental protocols were approved by the University of Chile Institutional Ethics Review Committee. CF were isolated from of 2 or 3–day–old Sprague-Dawley rats and cultured as described previously. Briefly, the neonatal rats were decapitated and their hearts were extracted under aseptic environment. Atria were removed and ventricles were cut into small pieces (~1–2 mm) for posterior colagenase II digestion. The digestion yield was separated by 10 min centrifugation at 89×g. The pellet was resuspended in 10 mL of Dulbecco’s Modified Eagle’s Medium/Nutrient F-12 (DMEM-F12) supplemented with 10% FBS and antibiotics (100 μg/mL streptomycin and 100 units/mL penicillin) and cultured in a humid atmosphere of 5% CO2 and 95% O2 at 37°C until confluence (5 days). The purity of the CFs population was assessed through the expression of several markers. CFs had positive staining against vimentin (Santa Cruz Biotechnology), while being negative against sarcomeric actin and desmin (Sigma-Aldrich). Experiments were performed on cells at passage 1. Cells were cultured in 35-mm well plates and serum starved for 24 h prior to stimulation.
(§3) To evaluate cytotoxicity, CFs were seeded in 12 microwell plates at a ratio of 2 × 10^4 cell/cm^2, cultured in DMEM–F12 medium + 10% FBS, which was subsequently replaced by DMEM–F12. After 24 h of serum starvation derivatives were applied at proper times and concentrations in accordance to experimental procedures. Cell viability assays were carried out using Alamar Blue®, a nontoxic, cell permeable non fluorescent compound that is blue in color. Viable cells reduce resazurin to resorufin, which produces very bright red fluorescence which is used as a quantitative cell viability measure. 10 μL of 0.2 mg/mL Alamar Blue® was added into each well followed by incubation for 24 h. The fluorescence of Alamar Blue® was read using microplate reader at 570 excitation and emission to 595 nm. Cell survival was expressed as percentage over the untreated cells. To evaluate CFs proliferation assay, cells were seeded as mentioned before, and after serum starvation, they were stimulated by 10% fetal bovine serum (FBS), in presence/absence of CTz derivatives for 24 h, at concentrations according to experiment. Cell proliferation was quantified by Alamar Blue®, according to protocol mentioned before. Cell proliferation was expressed as percentage over the control FBS treated cells.

[2] = test system: HDACs HeLa cells nuclear extract; assay: HDAC inhibitory activity, fluorometric kit, HeLa cell nuclear extract; type: biochemical, human; conditions: HeLa cell nuclear extract as HDAC source
HDAC6 human recombinant = target: T2, HDAC6 human recombinant (Homo sapiens, UniProt Q9UBN7); assay: HDAC6 inhibitory activity, fluorometric kit; type: biochemical; conditions: Class II
T2 construct: purchased Enzo Life Science BML-AK516
T2 sequence (Q9UBN7 1-1215): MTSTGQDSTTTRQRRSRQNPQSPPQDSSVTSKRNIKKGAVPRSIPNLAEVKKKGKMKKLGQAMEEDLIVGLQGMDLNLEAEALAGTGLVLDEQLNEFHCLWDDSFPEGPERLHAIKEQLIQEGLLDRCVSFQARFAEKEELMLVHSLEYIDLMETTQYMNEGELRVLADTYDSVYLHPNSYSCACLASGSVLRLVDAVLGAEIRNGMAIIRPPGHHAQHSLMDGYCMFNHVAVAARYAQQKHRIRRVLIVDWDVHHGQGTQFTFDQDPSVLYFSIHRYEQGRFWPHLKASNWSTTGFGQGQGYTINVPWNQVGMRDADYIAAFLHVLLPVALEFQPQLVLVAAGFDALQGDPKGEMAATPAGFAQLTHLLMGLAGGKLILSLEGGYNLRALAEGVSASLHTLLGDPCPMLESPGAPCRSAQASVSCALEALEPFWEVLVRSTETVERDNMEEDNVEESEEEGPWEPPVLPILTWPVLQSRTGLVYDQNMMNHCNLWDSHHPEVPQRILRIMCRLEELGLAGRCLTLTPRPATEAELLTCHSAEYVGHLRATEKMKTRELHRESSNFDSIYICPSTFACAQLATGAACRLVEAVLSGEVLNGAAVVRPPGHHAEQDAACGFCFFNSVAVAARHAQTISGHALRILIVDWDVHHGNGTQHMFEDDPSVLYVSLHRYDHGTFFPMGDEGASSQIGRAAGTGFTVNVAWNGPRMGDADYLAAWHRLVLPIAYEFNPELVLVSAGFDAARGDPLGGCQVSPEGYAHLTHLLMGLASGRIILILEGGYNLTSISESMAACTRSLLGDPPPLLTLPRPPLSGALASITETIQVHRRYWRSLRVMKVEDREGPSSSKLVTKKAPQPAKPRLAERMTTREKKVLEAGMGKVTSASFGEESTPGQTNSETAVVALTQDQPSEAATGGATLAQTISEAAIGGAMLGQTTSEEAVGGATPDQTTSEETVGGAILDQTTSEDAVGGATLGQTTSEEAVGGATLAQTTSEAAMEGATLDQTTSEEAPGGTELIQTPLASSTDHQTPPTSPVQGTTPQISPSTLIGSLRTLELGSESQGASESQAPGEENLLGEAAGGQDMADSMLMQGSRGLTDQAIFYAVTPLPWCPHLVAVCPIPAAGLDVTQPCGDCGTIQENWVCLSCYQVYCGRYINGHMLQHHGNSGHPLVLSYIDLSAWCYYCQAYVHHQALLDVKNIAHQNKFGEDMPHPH

[3] = test system: neonatal rat cardiac fibroblasts (CFs); assay: FBS-induced cardiac fibroblast proliferation assay (Alamar Blue); type: cell-based; conditions: 10% FBS-induced CF proliferation, 48 h, read-out: Inhibition percentage of cell proliferation
Protocol: CFs were treated for 48 h with 10% fetal bovine serum (FBS), to induce CFs proliferation in presence/absence of each new CTz derivatives in a concentration range of 1–10 μM. In Table 4, the inhibition percentage of cell proliferation for each concentration of the synthesized compounds are shown. All derivatives inhibited CFs proliferation induce by serum.
as §2, with “Cells were cultured in 35-mm well plates and serum starved for 24 h prior to stimulation.” left out
as §3, with “10 μL of 0.2 mg/mL Alamar Blue® was added into each well followed by incubation for 24 h.” left out, “To evaluate CFs proliferation assay, cells were seeded as mentioned before, and after serum starvation, they were stimulated by 10% fetal bovine serum (FBS), in presence/absence of CTz derivatives for 24 h, at concentrations according to experiment.” left out

[4] = test system: neonatal rat cardiac fibroblasts (CFs); assay: Cytotoxicity assay (Alamar Blue) in cardiac fibroblasts; type: cell-based; conditions: CFs treated for 48 h
Protocol: as §1, §2, §3

CFs = test system: CFs; parameters: method as in PMID 24631770, PMID 24374140; conditions: cited from earlier work
HDACs = conditions: read-out: IC50 HDAC inhibition, cited from earlier work

T1 sequence (Q13547 whole entry): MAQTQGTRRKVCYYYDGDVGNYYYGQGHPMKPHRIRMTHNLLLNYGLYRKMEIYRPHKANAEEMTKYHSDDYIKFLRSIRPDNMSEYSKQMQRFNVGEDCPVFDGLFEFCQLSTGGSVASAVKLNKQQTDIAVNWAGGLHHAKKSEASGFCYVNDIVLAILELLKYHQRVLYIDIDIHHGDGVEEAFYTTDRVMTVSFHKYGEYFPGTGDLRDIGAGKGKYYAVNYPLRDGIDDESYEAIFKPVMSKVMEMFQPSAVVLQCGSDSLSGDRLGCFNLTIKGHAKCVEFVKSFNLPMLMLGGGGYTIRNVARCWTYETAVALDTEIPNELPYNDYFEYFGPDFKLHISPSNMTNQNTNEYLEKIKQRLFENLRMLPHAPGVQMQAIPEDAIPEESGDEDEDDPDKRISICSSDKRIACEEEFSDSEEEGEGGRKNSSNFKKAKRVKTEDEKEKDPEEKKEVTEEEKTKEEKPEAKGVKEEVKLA

IC50 (HDAC1 human recombinant) [µM] | IC50 [2] [µM] | IC50 (HDAC6 human recombinant) [µM] | Compound | CC50 at 48 h [1] [µM] | inhibition at 1 µM [3] [%] | inhibition at 5 µM [3] [%] | inhibition at 10 µM [3] [%] | further results
0.0397 ± 0.0013 | 0.05 ± 0.0017 | 0.0841 ± 0.0029 | COc1ccc2oc(=O)c(-c3csc(NC(=O)CCCCC4CCSS4)n3)cc2c1 (stereo not drawn) [Compound 5c, 5-[1,2]-Dithiolan-3-yl-N-[4-(6-methoxy-2-oxo-2H-chromen-3-yl)-thiazol-2-yl]-pentanamide] | 171 ± 6.1 | 67 ± 8.3 | 83.2 ± 6.8 | 91.2 ± 3.2 | melting point: 83 to 84 °C
0.0454 ± 0.0026 | 0.0571 ± 0.0045 | 0.0802 ± 0.0037 | O=C(CCCCC(=O)Nc1nc(-c2cc3cc(Br)ccc3oc2=O)cs1)NO [Compound 8b, 5-[4-(6-Bromo-2-oxo-2H-chromen-3-yl)-thiazol-2-yl-carbamoyl]-N-hydroxypentanamide] | 72.4 | 72.7 ± 3.9 | 94.4 ± 7 | 104 ± 2.8 | CC50 [4]: 72.5 ± 11.6 µM
0.0465 ± 0.0022 | 0.0415 ± 0.0027 | 0.0626 ± 0.0023 | COc1ccc2oc(=O)c(-c3csc(NC(=O)CCCCC(=O)NO)n3)cc2c1 [Compound 8c, 5-[4-(6-Methoxy-2-oxo-2H-chromen-3-yl)-thiazol-2-yl-carbamoyl]-N-hydroxypentanamide] | 86.5 ± 5.9 | 69.7 ± 9.1 | 81.8 ± 5.5 | 97.7 ± 4.7 | melting point: 125 to 127 °C (dec.)
 |  |  | CCC(=O)CCCCC[C@@H]1NC(=O)[C@H]2CCCCN2C(=O)[C@H]([C@@H](C)CC)NC(=O)[C@H](Cc2cn(OC)c3ccccc23)NC1=O [apicidin] |  |  |  |  | concentration shown to inhibit the proliferation of CFs (CFs): 3 µM
 |  |  | O=C(O)/C=C/c1ccc(O)c(O)c1 [caffeic acid] |  |  |  |  | IC50 (HDACs; catecholic derivatives): 2540 µM
 |  |  | O=C(/C=C/c1ccc(O)c(O)c1)O[C@@H]1C[C@](O)(C(=O)O)C[C@@H](O)[C@H]1O [chlorogenic acid] |  |  |  |  | IC50 (HDACs; catecholic derivatives): 375 µM
 |  |  | Nc1ccccc1NC(=O)c1ccc(CNc2nccc(-c3cccnc3)n2)cc1 [mocetinostat] |  |  |  |  | concentration shown to inhibit the proliferation of CFs (CFs): 1 µM
 |  |  | O=C(O)CCCc1ccccc1 [phenylbutyric acid] |  |  |  |  | IC50 (HDACs; short chain fatty acids): 620 µM
 |  |  | CCCC(CCC)C(=O)O [valproic acid] |  |  |  |  | IC50 (HDACs; short chain fatty acids): 140 µM
